Data reported in patent US11753386B2, “Processes for preparing a MDM2 inhibitor” (Amgen, Inc., priority 2018, dated 2023).
Each block holds one molecule with its values, some of them ahead of it.

How the values were obtained:
Format in all cases: physicochemical
[1] = Equilibrium solubility measurements for DHO in various solvents; settings: thermodynamic from solid, 20° C.
Procedure: Equilibrium solubility measurements were gathered for DHO in various solvents. It was observed that all values obtained were above 20 mg/mL at 20° C. (including heptane) except for water (<0.1 mg/mL), which was thus selected as an anti-solvent. […] Using this protocol, crystalline DHO was isolated in 88% yield from DLAC in a >98 LC area % (Scheme 9).

[2] = Solubility in acetonitrile/water (9/1 volume ratio); settings: organic solvent or mixture, 10° C.
[3] = Supernatant concentration at end of crystallization; settings: 20° C.
Procedure: Cooling to 20° C. in 2 hours prompts another 60% of the material to crystallize. Four volumes of heptane are subsequently added to lower the supernatant concentration to approximately 5 mg/mL in preparation for batch filtration.
A curve showing solubility values at different time points in the crystallization process is represented in FIG. 16. […] One volume of water is subsequently added to lower the supernatant concentration to approximately 5 mg/mL in preparation for a rapid batch filtration. Three water washings (3×10 volumes) were conducted to minimize the presence of residual acetic acid in the isolated material.

[4] = Particle size distribution pre and post dry-milling
[5] = milled (Pallman Universal Mill)

SMILES: CC(C)[C@@H](CS(=O)(=O)C(C)C)N1C(=O)[C@@](C)(CC(=O)O)CC(c2cccc(Cl)c2)C1c1ccc(Cl)cc1 (stereo partly drawn) [Compound 232-DAB]
Supernatant concentration ([3]; isopropyl acetate (4 volumes) / heptane (4 volumes)): approximately 5 mg/mL

SMILES: CC(C)[C@@H](CS(=O)(=O)C(C)C)N1C(=O)[C@@](C)(CC=O)C[C@H](c2cccc(Cl)c2)C1c1ccc(Cl)cc1 (stereo partly drawn) [ALD]
solubility [2]: 21 mg/mL

Now from value to molecule:

solubility thermodynamic ([1]; organic solvent or mixture, various solvents (including heptane) except water): > 20 mg/mL
solubility thermodynamic ([1]; water): < 0.1 mg/mL
SMILES: C=CC[C@@](C)(C[C@H](c1cccc(Cl)c1)[C@@H](O)c1ccc(Cl)cc1)C1=N[C@@H](C(C)C)CO1 [DHO, (1R,2R,4S)-2-(3-chlorophenyl)-1-(4-chlorophenyl)-4-((S)-4-isopropyl-4,5-dihydrooxazol-2-yl)-4-methylhept-6-en-1-ol]

solubility [2]: 25 mg/mL
SMILES: C=CC[C@@]1(C)C[C@H](c2cccc(Cl)c2)[C@@H](c2ccc(Cl)cc2)N([C@H](CS(=O)(=O)C(C)C)C(C)C)C1=O [SUL, (3S,5R,6S)-3-allyl-5-(3-chlorophenyl)-6-(4-chlorophenyl)-1-((S)-1-(isopropylsulfonyl)-3-methylbutan-2-yl)-3-methylpiperidin-2-one]

Supernatant concentration ([3]; acetic acid (6.6 volumes) / water (4.4 + 1 volumes)): approximately 5 mg/mL
d10 [4, 5]: 3.2 μm
d50 [4, 5]: 19.1 μm
d90 [4, 5]: 43.7 μm
d10 ([4]; unmilled): 14.6 μm
d50 ([4]; unmilled): 42.5 μm
d90 ([4]; unmilled): 102 μm
SMILES: CC(C)[C@@H](CS(=O)(=O)C(C)C)N1C(=O)[C@@](C)(CC(=O)O)C[C@H](c2cccc(Cl)c2)[C@H]1c1ccc(Cl)cc1 [Compound A, 2-((3R,5R,6S)-5-(3-chlorophenyl)-6-(4-chlorophenyl)-1-((S)-1-(isopropylsulfonyl)-3-methylbutan-2-yl)-3-methyl-2-oxopiperidin-3-yl)acetic acid]
